From the CheMixHub viscosity set

Test: xn = mol fraction of the nth substance listed

CCCC[n+]1ccn(C)c1.O=C([O-])C(F)(F)F + O
Settings	viscosity [mPa·s]
298.15 K, 101 kPa, x2 = 0.7927	9.03

CS(=O)(=O)[O-].C[NH+]1CCCC1=O + O
viscosity [mPa·s], 100 kPa
Settings	x1 = 0.00179	x1 = 0.003586	x1 = 0.005368	x1 = 0.008047	x1 = 0.01067	x1 = 0.01419	x1 = 0.02096	x1 = 0.0263	x1 = 0.03141
293.15 K	1.057	1.106	1.151	1.222	1.295	1.396	1.594	1.754	1.917
298.15 K	0.9409	0.9808	1.02	1.08	1.146	1.233	1.409	1.551	1.681
303.15 K	0.8421	0.8782	0.9124	0.9664	1.022	1.099	1.254	1.374	1.483
308.15 K	0.7603	0.7902	0.8191	0.8672	0.9163	0.9865	1.126	1.232	1.325

C[C@H](N)C(=O)N[C@@H](CCC(N)=O)C(=O)O + O
Settings	viscosity [mPa·s]
298.15 K, 101 kPa, x1 = 0.0008999	0.919

C[n+]1ccn(CC(=O)O)c1.[Cl-] + O
298.15 K, 101 kPa
Settings	viscosity [mPa·s]
x1 = 0.0009	0.911
x1 = 0.001	0.915
x1 = 0.002	0.917

[I-].[Na+] + O
310.15 K, 101 kPa
Settings	viscosity [mPa·s]
x1 = 0.000186	0.7003
x1 = 0.000929	0.6978
x1 = 0.001834	0.6993
x1 = 0.002695	0.7053
x1 = 0.003679	0.7179
x1 = 0.005197	0.749
x1 = 0.005988	0.7709

[I-].[Na+] + OCCO
101 kPa, x1 = 0.2
Settings	viscosity [mPa·s]
303 K	47.72
313 K	29.93
323 K	20.08

[Sn] + [Ga]
323 K, 100 kPa
Settings	viscosity [mPa·s]
x1 = 0.085	1.693
x1 = 0.164	2.223
x1 = 0.37	3.637
x1 = 0.638	5.381
x1 = 0.841	6.576

C=C(C)C(=O)OC + c1ccccc1
303.15 K, 101 kPa
Settings	viscosity [mPa·s]
x1 = 0.1019	0.5507
x1 = 0.198	0.543
x1 = 0.4005	0.5273
x1 = 0.4996	0.522
x1 = 0.5998	0.519
x1 = 0.8001	0.5141
x1 = 0.896	0.5142

CCCCC/C=C\C/C=C\CCCCCCCC(=O)OCC(COC(=O)CCCCCCC/C=C\C/C=C\CCCCC)OC(=O)CCCCCCC/C=C\C/C=C\CCCCC + c1ccccc1
viscosity [mPa·s], 101.3 kPa
Settings	x1 = 0.000427	x1 = 0.000515	x1 = 0.000838	x1 = 0.001044	x1 = 0.001751	x1 = 0.004505	x1 = 0.007049	x1 = 0.009645
298.15 K	0.6136	0.6153	0.6216	0.6257	0.6401	0.6974	0.7485	0.8054
303.15 K	0.5723	0.5739	0.5797	0.5836	0.597	0.6502	0.6975	0.7492
308.15 K	0.535	0.5365	0.5419	0.5455	0.558	0.6077	0.6515	0.6986

ClCCCCCCCl + c1ccccc1
viscosity [mPa·s], 101 kPa
Settings	x1 = 0.09315	x1 = 0.1846	x1 = 0.2859	x1 = 0.3958	x1 = 0.5003	x1 = 0.5842	x1 = 0.6836	x1 = 0.7842	x1 = 0.8829
308.15 K	0.565	0.613	0.668	0.733	0.824	0.92	1.066	1.217	1.393
313.15 K	0.546	0.591	0.645	0.704	0.789	0.888	1.014	1.164	1.324
318.15 K	0.505	0.548	0.594	0.642	0.72	0.809	0.929	1.056	1.197
